Values of other authors as cited in patent US20250073171A1, “DRUG DELIVERY SYSTEM FOR THE TREATMENT OF FEMALE SEXUAL INTEREST AND AROUSAL DISORDER” (Freya Pharma Solutions Holding B.V., priority 2023, published 2025).

Columns and labels:
SHBG = molecular target: T1, SHBG (Homo sapiens, UniProt P04278); conditions: bloodstream
T1 sequence (P04278 30-402): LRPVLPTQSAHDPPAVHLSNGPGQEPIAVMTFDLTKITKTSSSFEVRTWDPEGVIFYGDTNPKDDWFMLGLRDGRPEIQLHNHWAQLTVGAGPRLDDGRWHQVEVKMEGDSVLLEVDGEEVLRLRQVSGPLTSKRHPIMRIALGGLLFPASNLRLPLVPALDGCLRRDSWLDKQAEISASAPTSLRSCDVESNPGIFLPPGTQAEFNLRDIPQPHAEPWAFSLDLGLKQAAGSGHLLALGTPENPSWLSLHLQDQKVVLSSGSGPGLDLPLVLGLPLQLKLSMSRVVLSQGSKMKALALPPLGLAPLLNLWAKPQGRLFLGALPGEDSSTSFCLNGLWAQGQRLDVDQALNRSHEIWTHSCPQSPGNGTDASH

albumin = albumin (Homo sapiens, UniProt P02768); conditions: bloodstream
albumin, sequence (P02768 25-609): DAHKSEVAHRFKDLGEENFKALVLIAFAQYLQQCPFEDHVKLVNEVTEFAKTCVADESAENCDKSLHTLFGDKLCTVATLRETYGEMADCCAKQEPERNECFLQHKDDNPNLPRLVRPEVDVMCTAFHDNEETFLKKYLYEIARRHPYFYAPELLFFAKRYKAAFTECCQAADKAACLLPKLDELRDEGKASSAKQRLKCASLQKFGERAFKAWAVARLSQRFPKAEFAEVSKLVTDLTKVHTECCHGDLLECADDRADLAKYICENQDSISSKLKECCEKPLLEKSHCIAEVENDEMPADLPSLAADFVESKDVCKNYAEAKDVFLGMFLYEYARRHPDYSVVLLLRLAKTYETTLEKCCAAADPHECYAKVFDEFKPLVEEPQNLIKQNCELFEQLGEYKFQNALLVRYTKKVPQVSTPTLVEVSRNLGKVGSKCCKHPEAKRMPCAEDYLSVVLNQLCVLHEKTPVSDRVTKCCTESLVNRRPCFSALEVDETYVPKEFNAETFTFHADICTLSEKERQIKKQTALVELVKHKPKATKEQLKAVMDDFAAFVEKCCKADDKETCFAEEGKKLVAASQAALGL

C[C@]12CC[C@H]3[C@@H](CCC4=CC(=O)CC[C@@]43C)[C@@H]1CC[C@@H]2O [testosterone, 17-[beta]-hydroxyandrost-4-en-3-one]
free testosterone, percentage of total testosterone (bloodstream): 1-2% | T1/2 of free testosterone (metabolism of free testosterone): approximately 10 min | SHBG-bound testosterone, percentage of total testosterone (SHBG): 60-70% | albumin-bound testosterone, percentage of total testosterone (albumin): 30-40%
